Results on 28 compounds are retold here after patent publication US10246426B2, “Triazole compounds as T-type calcium channel blockers” (IDORSIA PHARMACEUTICALS LTD, priority 2014, dated 2019).

Each structure is given as a SMILES string.

The assay deals with Cav3.2 (Homo sapiens, UniProt O95180). The assay can be described thus: Calcium flux FLIPR assay, HEK293 cells recombinantly expressing Cav3.2. Format: cell-based. The following applies: Cav3.2-channel, Ca2+ entry stimulated by 10 mM CaCl2. Here is the method: In Vitro Methods—Measurement of Calcium Channel Flux by Means of FLIPR Assays.
Sequence of Cav3.2 (O95180 whole entry, looked up): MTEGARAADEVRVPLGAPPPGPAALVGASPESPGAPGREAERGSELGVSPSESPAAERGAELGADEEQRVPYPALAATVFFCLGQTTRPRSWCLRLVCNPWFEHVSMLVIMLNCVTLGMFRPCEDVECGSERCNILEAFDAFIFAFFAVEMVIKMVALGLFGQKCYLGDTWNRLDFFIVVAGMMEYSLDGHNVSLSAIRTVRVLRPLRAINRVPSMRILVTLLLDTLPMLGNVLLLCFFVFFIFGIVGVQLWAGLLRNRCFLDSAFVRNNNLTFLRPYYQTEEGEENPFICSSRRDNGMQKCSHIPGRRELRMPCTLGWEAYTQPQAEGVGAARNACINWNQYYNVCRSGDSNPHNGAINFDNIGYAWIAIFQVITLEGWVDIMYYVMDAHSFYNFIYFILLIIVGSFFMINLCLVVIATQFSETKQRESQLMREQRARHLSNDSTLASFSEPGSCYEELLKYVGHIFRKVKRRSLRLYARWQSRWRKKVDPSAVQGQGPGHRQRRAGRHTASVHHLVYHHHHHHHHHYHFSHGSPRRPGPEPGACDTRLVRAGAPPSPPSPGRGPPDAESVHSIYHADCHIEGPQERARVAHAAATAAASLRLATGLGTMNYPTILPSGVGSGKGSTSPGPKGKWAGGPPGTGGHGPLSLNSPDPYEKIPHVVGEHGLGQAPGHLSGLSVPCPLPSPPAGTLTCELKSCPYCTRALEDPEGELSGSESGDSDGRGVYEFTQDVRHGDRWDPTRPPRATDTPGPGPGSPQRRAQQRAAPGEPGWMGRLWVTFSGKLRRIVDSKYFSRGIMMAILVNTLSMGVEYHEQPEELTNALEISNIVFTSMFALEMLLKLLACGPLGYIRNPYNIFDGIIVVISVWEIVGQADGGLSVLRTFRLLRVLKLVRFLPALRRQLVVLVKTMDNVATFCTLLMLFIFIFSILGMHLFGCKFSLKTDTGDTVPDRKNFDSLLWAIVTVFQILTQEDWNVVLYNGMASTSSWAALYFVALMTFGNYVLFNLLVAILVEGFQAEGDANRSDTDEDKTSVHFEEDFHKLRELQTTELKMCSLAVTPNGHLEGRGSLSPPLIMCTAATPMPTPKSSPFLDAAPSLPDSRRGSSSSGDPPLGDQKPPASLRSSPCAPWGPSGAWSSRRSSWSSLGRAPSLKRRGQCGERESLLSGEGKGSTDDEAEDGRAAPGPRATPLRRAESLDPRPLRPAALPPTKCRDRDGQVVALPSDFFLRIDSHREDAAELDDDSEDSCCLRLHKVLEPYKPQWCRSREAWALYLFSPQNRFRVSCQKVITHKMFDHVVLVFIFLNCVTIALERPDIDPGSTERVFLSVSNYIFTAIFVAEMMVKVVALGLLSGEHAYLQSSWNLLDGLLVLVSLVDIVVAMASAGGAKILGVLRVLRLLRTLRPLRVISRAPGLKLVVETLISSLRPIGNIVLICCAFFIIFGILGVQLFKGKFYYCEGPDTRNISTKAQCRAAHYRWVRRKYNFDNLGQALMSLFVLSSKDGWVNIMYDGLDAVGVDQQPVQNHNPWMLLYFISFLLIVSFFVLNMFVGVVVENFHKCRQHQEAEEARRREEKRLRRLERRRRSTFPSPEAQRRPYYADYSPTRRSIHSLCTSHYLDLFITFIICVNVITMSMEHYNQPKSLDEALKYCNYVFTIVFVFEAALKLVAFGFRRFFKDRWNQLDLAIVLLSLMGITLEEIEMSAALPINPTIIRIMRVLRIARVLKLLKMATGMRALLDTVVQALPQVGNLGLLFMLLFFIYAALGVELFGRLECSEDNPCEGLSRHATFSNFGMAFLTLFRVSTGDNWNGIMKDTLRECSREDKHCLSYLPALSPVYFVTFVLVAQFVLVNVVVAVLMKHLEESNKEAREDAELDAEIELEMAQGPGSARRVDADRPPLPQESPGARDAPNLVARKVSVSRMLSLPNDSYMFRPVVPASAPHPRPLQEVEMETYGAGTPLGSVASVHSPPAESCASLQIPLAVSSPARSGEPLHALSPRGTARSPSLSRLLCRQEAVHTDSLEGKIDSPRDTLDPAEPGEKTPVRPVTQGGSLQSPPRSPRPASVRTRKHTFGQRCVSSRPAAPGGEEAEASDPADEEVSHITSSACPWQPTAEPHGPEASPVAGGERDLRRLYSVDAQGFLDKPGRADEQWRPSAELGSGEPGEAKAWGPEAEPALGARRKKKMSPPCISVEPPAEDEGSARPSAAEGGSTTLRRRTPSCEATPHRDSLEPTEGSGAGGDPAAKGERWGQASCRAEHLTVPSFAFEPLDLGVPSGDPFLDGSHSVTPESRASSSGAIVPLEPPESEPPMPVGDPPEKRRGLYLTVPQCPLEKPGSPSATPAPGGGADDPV
HEK293 cells recombinantly expressing either voltage-dependent T-type calcium channel subunit […] (Cav3.2) or voltage-dependent L-type calcium channel subunit alpha-1C (Cav1.2) are assayed for calcium flux using the calcium indicator dye Fluo-4-AM (Molecular Devices) and FLIPR technology (Fluorometric Imaging Plate Reader, Molecular Devices) (Xie X, Van Deusen A L, Vitko I, Babu D A, Davies L A, Huynh N, Cheng H, Yang N, Barrett P Q, Perez-Reyes E. Validation of high throughput screening assays against three subtypes of Ca(v)3 T-type channels using molecular and pharmacologic approaches. Assay and Drug Development Technologies 2007, 5(2), 191-203). The HEK293 cells recombinantly expressing Cav3.2 are maintained in DMEM growth medium (Life Technologies) supplemented with 10% Fetal Bovine Serum (FBS), 100 U/ml penicilin (Life Technologies), 100 μg/ml streptomycin (Life Technologies) and 1 mg/ml G418 (Life Technologies). HEK293 cells recombinantly expressing Cav1.2 are maintained in DMEM growth medium (Life technologies) supplemented with 10% FBS, 0.1 mg/ml G418 (Life Technologies), 0.1 mg/ml hygromycin (Life Technologies) and 40 ug/ml zeocin (Life Technologies).
Cells are washed once with PBS, then dissociated in 0.25% trypsin/EDTA (Life Technologies) and seeded into poly-D-lysine coated 384-well black, clear bottom plates (BD Biosciences) at a density of 30,000 cells/well. The seeded plates are incubated overnight at 37° C.
Immediately prior to performing the assay, medium is removed and cells are treated for 1 hour at 37° C. with loading buffer containing HBSS 1× (137 mM NaCl; 5.4 mM KCl; 0.25 mM Na2HPO4; 1.3 mM CaCl2; 0.4 mM MgSO04; 0.5 mM MgCl2; 0.4 mM KH2PO4, pH 7.4), 0.375 g/L NaHCO3, 20 mM Hepes, supplemented with 3 μM Fluo-4-AM and 0.15% Pluronic (Life Technologies). The cells are then washed three times with assay buffer (HBSS 1×; 0.375 g/L NaHCO3; 20 mM Hepes; 1% FBS; pH 7.4) and allowed to rest in 50 μl of wash buffer for 30 minutes.
Stock solutions of test compounds are prepared to a concentration of 10 mM in DMSO. For the Cav3.2 assay, serial dilutions of the compounds are prepared in TEAC buffer (100 mM tetraethylammonium chloride; 20 mM Hepes; 2.5 mM CaCl2; 5 mM KCl; 1 mM MgCl2; 1% FBS; pH 7.2), for the Cav1.2 assay serial dilutions are prepared in assay buffer. […] The compounds are incubated with the cells for 3 minutes and Ca2+ entry is stimulated by adding either CaCl2 to a final concentration of 10 mM (Cav3.2 assay) or by adding KCl to a final concentration of 20 mM (Cav1.2 assay). The kinetics of fluorescence increase are recorded for every well and the area under the fluorescence trace for every compound concentration is used to generate inhibition curves using non-linear regression sigmoidal concentration-response curve analysis with in-house software. IC50 values are calculated and represent the compound concentration required to inhibit 50% of the signal that is obtained in the presence of vehicle instead of test compound.
(In general: Calcium assays in cells follow changes in intracellular calcium, usually with a dye or a luminescent sensor.)
`CCN(CC)c1ccc(CC(=O)Nc2cnn(Cc3ccc(F)cc3)n2)cn1` [Example 95, 2-(6-Diethylamino-pyridin-3-yl)-N-[2-(4-fluoro-benzyl)-2H-[1,2,3]triazol-4-yl]-acetamide]: the IC50 was determined as 0.046 µM.

Take `CCN(CC)c1ccc(CC(=O)Nc2cnn(Cc3ccc(F)c(F)c3)n2)cn1` [Example 16, 2-(6-Diethylamino-pyridin-3-yl)-N-[2-(3,4-difluoro-benzyl)-2H-[1,2,3]triazol-4-yl]-acetamide]: the IC50 amounted to 0.015 µM. Under `CC(C)c1ccc(CC(=O)Nc2cnn(Cc3ccc(OC(F)(F)F)c(F)c3)n2)cc1` [Example 187, N-[2-(3-Fluoro-4-trifluoromethoxy-benzyl)-2H-[1,2,3]triazol-4-yl]-2-(4-isopropyl-phenyl)-acetamide] stands 0.065 µM; under `Cn1ccc2cc(CC(=O)Nc3cnn(Cc4ccc(OC(F)F)cc4)n3)ccc21` [Example 89, N-[2-(4-Difluoromethoxy-benzyl)-2H-[1,2,3]triazol-4-yl]-2-(1-methyl-1H-indol-5-yl)-acetamide], 0.02 µM. For `COc1cc(Cn2ncc(NC(=O)Cc3ccc(C4(C(F)(F)F)CC4)cc3)n2)cc(F)c1F` [Example 227, N-[2-(3,4-Difluoro-5-methoxy-benzyl)-2H-[1,2,3]triazol-4-yl]-2-[4-(1-trifluoromethyl-cyclopropyl)-phenyl]-acetamide] the value was 0.77 µM; for `Cn1ncc2ccc(CC(=O)Nc3cnn(Cc4ccc(C#N)c(F)c4)n3)cc21` [Example 132, N-[2-(4-Cyano-3-fluoro-benzyl)-2H-[1,2,3]triazol-4-yl]-2-(1-methyl-1H-indazol-6-yl)-acetamide], 0.18 µM; for `Cc1ccc(Cn2ncc(NC(=O)Cc3ccc(OCC4(F)COC4)cc3)n2)cc1C#N` [Example 200, N-[2-(3-Cyano-4-methyl-benzyl)-2H-[1,2,3]triazol-4-yl]-2-[4-(3-fluoro-oxetan-3-ylmethoxy)-phenyl]-acetamide], 0.41 µM. Under `CCOc1ccc(Cn2ncc(NC(=O)Cc3ccc(C(C)(C)C)cc3)n2)cc1` [Example 43, 2-(4-tert-Butyl-phenyl)-N-[2-(4-ethoxy-benzyl)-2H-[1,2,3]triazol-4-yl]-acetamide] stands 0.045 µM; under `COc1ccc(Cn2ncc(NC(=O)Cc3ccc4c(cnn4C)c3)n2)cc1F` [Example 152, N-[2-(3-Fluoro-4-methoxy-benzyl)-2H-[1,2,3]triazol-4-yl]-2-(1-methyl-1H-indazol-5-yl)-acetamide], 0.091 µM; under `CC(C)(C)c1ccc(CC(=O)Nc2cnn(Cc3ccc(C#N)cc3)n2)cc1` [Example 96, 2-(4-tert-Butyl-phenyl)-N-[2-(4-cyano-benzyl)-2H-[1,2,3]triazol-4-yl]-acetamide], 0.044 µM. On to `Cc1ccc(Cn2ncc(NC(=O)Cc3ccc4c(cnn4C)c3)n2)cc1` [Example 69, N-[2-(4-Methyl-benzyl)-2H-[1,2,3]triazol-4-yl]-2-(1-methyl-1H-indazol-5-yl)-acetamide], for which the IC50 is 0.02 µM. Under `CC(C)(C)c1ccc(CC(=O)Nc2cnn(Cc3ccc(OC(F)(F)F)c(F)c3)n2)cc1` [Example 184, 2-(4-tert-Butyl-phenyl)-N-[2-(3-fluoro-4-trifluoromethoxy-benzyl)-2H-[1,2,3]triazol-4-yl]-acetamide] stands 0.083 µM. For `Cn1ccc2cc(CC(=O)Nc3cnn(Cc4ccc(C#N)c(F)c4)n3)ccc21` [Example 70, N-[2-(4-Cyano-3-fluoro-benzyl)-2H-[1,2,3]triazol-4-yl]-2-(1-methyl-1H-indol-5-yl)-acetamide] the value was 0.018 µM. As for `COC1(c2ccc(CC(=O)Nc3cnn(Cc4ccc(C#N)cc4)n3)cc2)COC1` [Example 237, N-[2-(4-Cyano-benzyl)-2H-[1,2,3]triazol-4-yl]-2-[4-(3-methoxy-oxetan-3-yl)-phenyl]-acetamide], the 50% inhibitory concentration (IC50) came to 0.2 µM. For `COc1ccc(Cn2ncc(NC(=O)Cc3ccc(N4CCC(F)(F)C4)nc3)n2)cc1OC` [Example 48, 2-[6-(3,3-Difluoro-pyrrolidin-1-yl)-pyridin-3-yl]-N-[2-(3,4-dimethoxy-benzyl)-2H-[1,2,3]triazol-4-yl]-acetamide] the value was 0.53 µM; for `Cc1cc(Cn2ncc(NC(=O)Cc3ccc(N4CCC(F)(F)C4)nc3)n2)ccc1C#N` [Example 167, N-[2-(4-Cyano-3-methyl-benzyl)-2H-[1,2,3]triazol-4-yl]-2-[6-(3,3-difluoro-pyrrolidin-1-yl)-pyridin-3-yl]-acetamide], 0.022 µM.

Take `Cc1ccc(Cn2ncc(NC(=O)Cc3ccc(N4CCCC4)nc3)n2)cc1C#N` [Example 213, N-[2-(3-Cyano-4-methyl-benzyl)-2H-[1,2,3]triazol-4-yl]-2-(6-pyrrolidin-1-yl-pyridin-3-yl)-acetamide]: the IC50 is 0.12 µM. For `Cn1ncc2cc(CC(=O)Nc3cnn(Cc4ccc(OC(F)(F)F)c(F)c4)n3)ccc21` [Example 186, N-[2-(3-Fluoro-4-trifluoromethoxy-benzyl)-2H-[1,2,3]triazol-4-yl]-2-(1-methyl-1H-indazol-5-yl)-acetamide], the IC50 amounted to 0.0088 µM. With `N#Cc1ccc(Cn2ncc(NC(=O)Cc3ccc(C4(C(F)(F)F)CC4)cc3)n2)cc1` [Example 195, N-[2-(4-Cyano-benzyl)-2H-[1,2,3]triazol-4-yl]-2-[4-(1-trifluoromethyl-cyclopropyl)-phenyl]-acetamide], the IC50 amounted to 0.063 µM.

Regarding `COc1cc(Cn2ncc(NC(=O)Cc3ccc4c(cnn4C)c3)n2)cc(F)c1F` [Example 212, N-[2-(3,4-Difluoro-5-methoxy-benzyl)-2H-[1,2,3]triazol-4-yl]-2-(1-methyl-1H-indazol-5-yl)-acetamide], the IC50 was found to be 0.23 µM.

For the compound `Cn1ncc2cc(CC(=O)Nc3cnn(Cc4ccc(C#N)c(F)c4)n3)ccc21` [Example 76, N-[2-(4-Cyano-3-fluoro-benzyl)-2H-[1,2,3]triazol-4-yl]-2-(1-methyl-1H-indazol-5-yl)-acetamide], the IC50 was found to be 0.12 µM. For `CCn1ncc2cc(CC(=O)Nc3cnn(Cc4ccc(C#N)c(C)c4)n3)ccc21` [Example 168, N-[2-(4-Cyano-3-methyl-benzyl)-2H-[1,2,3]triazol-4-yl]-2-(1-ethyl-1H-indazol-5-yl)-acetamide] the value was 0.04 µM; for `Cn1ncc2cc(CC(=O)Nc3cnn(Cc4ccc(C#N)cc4)n3)ccc21` [Example 234, N-[2-(4-Cyano-benzyl)-2H-[1,2,3]triazol-4-yl]-2-(1-methyl-1H-indazol-5-yl)-acetamide], 0.076 µM.

With `CN1C(=O)C(C)(C)c2cc(CC(=O)Nc3cnn(Cc4ccc(F)c(F)c4)n3)ccc21` [Example 19, N-[2-(3,4-Difluoro-benzyl)-2H-[1,2,3]triazol-4-yl]-2-(1,3,3-trimethyl-2-oxo-2,3-dihydro-1H-indol-5-yl)-acetamide], the half-maximal inhibitory concentration (IC50) was determined as 0.0097 µM.

As to `CCOc1ccc(Cn2ncc(NC(=O)Cc3ccc(C4(C)COC4)cc3)n2)cc1` [Example 42, N-[2-(4-Ethoxy-benzyl)-2H-[1,2,3]triazol-4-yl]-2-[4-(3-methyl-oxetan-3-yl)-phenyl]-acetamide], the IC50 amounted to 0.031 µM. For `COc1ccc(Cn2ncc(NC(=O)Cc3ccc(N4CCC(F)(F)C4)nc3)n2)cc1C#N` [Example 207, N-[2-(3-Cyano-4-methoxy-benzyl)-2H-[1,2,3]triazol-4-yl]-2-[6-(3,3-difluoro-pyrrolidin-1-yl)-pyridin-3-yl]-acetamide] the value was 0.13 µM; for `Cc1cc(Cn2ncc(NC(=O)Cc3ccc(OC4CC(F)(F)C4)cc3)n2)ccc1C#N` [Example 166, N-[2-(4-Cyano-3-methyl-benzyl)-2H-[1,2,3]triazol-4-yl]-2-[4-(3,3-difluoro-cyclobutoxy)-phenyl]-acetamide], 0.033 µM. On to `CC1(c2ccc(CC(=O)Nc3cnn(Cc4ccc(OC(F)(F)F)cc4)n3)cc2)COC1` [Example 93, 2-[4-(3-Methyl-oxetan-3-yl)-phenyl]-N-[2-(4-trifluoromethoxy-benzyl)-2H-[1,2,3]triazol-4-yl]-acetamide], for which the IC50 came to 0.015 µM.

As a reminder, the IC50 is the concentration that inhibits the measured activity by half.
